Data reported in the PolyMetriX glass transition set.
± gives the standard deviation of the reports.

| glass transition temperature | Compound |
| --- | --- |
| 251.00 °C | *Oc1ccc(C(=O)Nc2ccccc2-c2ccc(NC(=O)c3ccc(*)cc3)cc2)cc1 (repeat unit) |
| 295.00 °C | *C(=O)Nc1ccc(Oc2ccc(N3C(=O)c4ccc(*)cc4C3=O)cc2)cc1 (repeat unit) |
| 293.00 °C | *C(=O)c1ccc2c(c1)C(=O)N(c1ccc(Oc3ccc(S(=O)(=O)c4ccc(C)cc4)cc3)c(N3C(=O)c4ccc(*)cc4C3=O)c1)C2=O (repeat unit) |
| 50.00 °C | *CCOCCOCCOC(=O)c1ccc(-c2ccc(-c3ccc(C(=O)O*)cc3)cc2)cc1 (repeat unit) |
| 180.00 °C | *Oc1cc(OC(=O)c2ccc(Oc3ccc(C4(c5ccc(Oc6ccc(C(*)=O)cc6)cc5)CCC(C(C)(C)C)CC4)cc3)cc2)ccc1C12CC3CC(CC(C3)C1)C2 (repeat unit) |
| 10.00 °C | *CC(=O)NCCCCCCNC(=O)CO* (repeat unit) |
| 276.00 °C | *c1cc(/C=N/C(=S)Nc2ccc(-n3c(=O)c4cc5c(=O)n(*)c(=O)c5cc4c3=O)cc2)ccc1Cl (repeat unit) |
| 221.60 °C | *CCCCCCCCCCCCNC(=O)CCCCCCCCCCCCCCCCCCC(=O)N* (repeat unit) |
| 274.00 °C | *Oc1ccc(NC(=C(C#N)C#N)c2cccc(C(Nc3ccc(Oc4ccc(NC(=O)c5ccc(C(=O)Nc6ccc(*)cc6)cc5)cc4)cc3)=C(C#N)C#N)c2)cc1 (repeat unit) |
| 103.00 °C | *Oc1ccc(/C=C/c2cc(OCCCCCCCC)c(/C=C/c3ccc(Oc4cc5c6c(ccc7c8c(*)cc9c%10c(ccc(c4c67)c%108)C(=O)N(CCCCCCCC)C9=O)C(=O)N(CCCCCCCC)C5=O)cc3)cc2OCCCCCCCC)cc1 (repeat unit) |
| 260.00 °C | *c1cccc(N2C(=O)c3ccc(Oc4cccc5c(Oc6ccc7c(c6)C(=O)N(*)C7=O)cccc45)cc3C2=O)c1 (repeat unit) |
| 23.00 °C | *CC(*)(C)C(=O)OCc1ccc2c(c1)c1ccccc1n2CCCCCCCCCCCCCCCC (repeat unit) |
| 34.00 °C | *Oc1ccc(CC(NC(=O)CCc2ccc(OC(=O)CCC(*)=O)cc2)C(=O)OCCOCCOCC)cc1 (repeat unit) |
| 4.50 °C | *CC(*)c1ccc(CCCCCCCCCCCCCCCC)cc1 (repeat unit) |
| 50.50 °C | *CCCCCCCCCCCCOC(=O)c1ccc(-c2ccc(C(=O)O*)cc2)cc1 (repeat unit) |
| 131.00 °C | *Oc1cccc(Oc2ccc(C(=O)Oc3cccc(OC(=O)c4ccc(*)cc4)c3)cc2)c1 (repeat unit) |
| 113.00 °C | *CCCCCCNC(=O)c1ccc(C(=O)N*)c(Oc2ccc(F)cc2)c1 (repeat unit) |
| 16.50 °C | *O[Si](*)(C)CCCCCCCCCCC(=O)Oc1ccc(-c2ccc(OC(=O)CCCCC(=O)OC3CC(C)CCC3C(C)C)cc2)cc1 (repeat unit) |
| 131.00 °C | *CC(*)(C)C(=O)Oc1ccc(CC#N)cc1 (repeat unit) |
| 243.00 °C | *Oc1ccc(-c2ccc(OC(=O)/C=C/c3ccc(/C=C/C(*)=O)cc3)cc2)cc1 (repeat unit) |
| 85.00 °C | *c1ccc(-c2ccc(N(*)c3ccc(C)cc3)cc2)cc1 (repeat unit) |
| 132.2 °C | *O[Si](Oc1ccc(-c2ccc(*)cc2)cc1)(c1ccccc1)c1ccccc1 (repeat unit) |
| 85.00 °C | *CC(*)C(=O)Oc1cccc2ccccc12 (repeat unit) |
| 191.00 °C | *Oc1ccc(C(=O)c2cccc(NC(=O)c3cccc(C(=O)Nc4cccc(C(=O)c5ccc(*)cc5)c4)c3)c2)cc1 (repeat unit) |
| 229.00 °C | *c1ccc(Oc2ccc(Oc3ccc(N4C(=O)c5ccc(Oc6ccc(C(c7ccccc7)(c7ccccc7)c7ccc(Oc8ccc9c(c8)C(=O)N(*)C9=O)cc7)cc6)cc5C4=O)cc3)c(C(C)(C)C)c2)cc1 (repeat unit) |
| 58.00 °C | *c1ccc(C(=O)OCCCCCCCCCCOc2ccc(/C=C3\CC/C(=C\c4ccc(OCCCCCCCCCCOC(=O)c5ccc(-c6nnc(*)o6)cc5)cc4)C3=O)cc2)cc1 (repeat unit) |

| glass transition temperature | Compound |
| --- | --- |
| 68.00 °C | */C=C/C1CC(*)C(C#N)(C[Si](C)(C)O[Si](C)(C)C)C1 (repeat unit) |
| 174.00 °C | *CCCCCCN(CC(F)(F)C(F)(F)F)C(=O)C(F)(F)C(F)(F)C(F)(F)C(=O)N(*)CC(F)(F)C(F)(F)F (repeat unit) |
| 207.00 °C | *Oc1ccc(S(=O)(=O)c2ccc(Oc3ccc(C(=O)c4ccc(-c5ccc(C(=O)c6ccc(*)cc6)cc5)cc4)cc3)cc2)cc1 (repeat unit) |
| 254.00 °C | *C(=O)Nc1ccc(Oc2ccc(-c3ccc(Oc4ccc(NC(=O)c5ccc6c(c5)C(=O)N(c5ccc(Oc7ccccc7-c7ccccc7Oc7ccc(N8C(=O)c9ccc(*)cc9C8=O)cc7)cc5)C6=O)cc4)cc3)cc2)cc1 (repeat unit) |
| 40.50 °C | *CC[CH2][Sn]([CH3])([CH3])[CH2]CCOC(=O)C(CCCCCCOc1ccc(-c2ccc(OCc3ccc([N+](=O)[O-])cc3)cc2)cc1)C(=O)O* (repeat unit) |
| -23.00 °C | *O[Si](C)(C)C#C[Si](C)(C)C#C[Si](C)(C)C#C[Si](C)(C)C#C[Si](*)(C)C (repeat unit) |
| 30.00 °C | *CC(CCC)C(CCC)COC(=O)c1ccc(C(=O)O*)cc1 (repeat unit) |
| 15.00 °C | *CC(*)C(=O)OCCCCCCCCCOC(=O)c1ccc(OC(=O)c2ccc(C#N)cc2)cc1 (repeat unit) |
| 87.50 °C | *CC(*)(F)C(=O)OCCC(F)(F)C(F)(F)C(F)(F)C(F)(F)C(F)(F)C(F)(F)C(F)(F)C(F)(F)F (repeat unit) |
| -60.50 °C | *CC(F)(F)C(F)(F)C(F)(F)COC(=O)CCCCC(=O)O* (repeat unit) |
| 251.00 °C | *c1cccc(Oc2ccc(-c3ccc(Oc4cccc(-n5c(=O)c6cc7c(=O)n(*)c(=O)c7cc6c5=O)c4)cc3)cc2)c1 (repeat unit) |
| 117.50 °C | *CC(O)COc1ccc(C(C)(C)c2ccc(OCC(O)COc3ccc(S(=O)(=O)c4ccc(O*)c(C)c4)cc3C)cc2)cc1 (repeat unit) |
| -37.00 °C | *O[Si](C)(C)O[Si](C)(C)O[Si](C)(C)c1ccc(Oc2ccc([Si](*)(C)C)cc2)cc1 (repeat unit) |
| 130.00 °C | *CC(O)COc1ccc(C(=O)c2ccc(O*)cc2)cc1 (repeat unit) |
| 124.00 °C | *OS(=O)(=O)c1cccc(S(=O)(=O)Oc2ccc(C(C)(C)c3ccc(*)cc3)cc2)c1 (repeat unit) |
| 227.50 °C | *c1ccc(Oc2ccc(C(C)(C)c3ccc(Oc4ccc(N5C(=O)c6ccc(Oc7ccc8c(c7)C(=O)N(*)C8=O)cc6C5=O)cc4)cc3)cc2)cc1 (repeat unit) |
| 177.00 °C | *Oc1ccc(C(C)(c2ccccc2)c2ccc(Oc3ccc(C(=O)C(=O)c4ccc(*)cc4)cc3)cc2)cc1 (repeat unit) |
| 300.00 °C | *c1ccc2c(c1)C(=O)N(c1cccc(Oc3ccc(N4C(=O)c5ccc(-c6c(-c7ccccc7)c(-c7ccccc7)c(-c7ccc(Sc8ccc(-c9c(-c%10ccccc%10)c(-c%10ccccc%10)c(*)c(-c%10ccccc%10)c9-c9ccccc9)cc8)cc7)c(-c7ccccc7)c6-c6ccccc6)cc5C4=O)cc3)c1)C2=O (repeat unit) |
| 68.00 °C | *CCCCCCCCNC(=O)NCc1ccc(CNC(=O)N*)cc1 (repeat unit) |
| 152.00 °C | *c1ccc(NC2CC(=O)N(c3ccc(-c4sc(-c5ccc(N6C(=O)CC(Nc7ccc(-c8nc(-c9ccc(-c%10nc(-c%11ccc([N+](=O)[O-])cc%11)c(-c%11ccc([N+](=O)[O-])cc%11)[nH]%10)cc9)[nH]c8*)cc7)C6=O)cc5)c(-c5ccccc5)c4-c4ccccc4)cc3)C2=O)cc1 (repeat unit) |
| 12.50 °C | *CCOCCOCCOCCOCCOCCOC(=O)c1cc(OCCCCCCOc2ccc(-c3ccc(OC)cc3)cc2)cc(C(=O)O*)c1 (repeat unit) |
| 46.00 °C | *CC(*)(C)C(=O)OCCCCCCOc1ccc(C(=O)Oc2ccc(/N=N/c3ccc(Br)cc3)c3ccccc23)cc1 (repeat unit) |
| 76.00 °C | *CC(*)OC(=O)c1ccc(OC(C)=O)cc1 (repeat unit) |
| 129 ± 5.4 °C | *CCCCCCNC(=O)c1cccc(C(=O)N*)c1 (repeat unit) [Poly(hexamethylene isophthalamide) ] |
| 60.00 °C | *CC#C/C(C#CCOC(=O)CCCCCCCCC(=O)O*)=C\c1ccc(C#Cc2ccc(C=C(C#Cc3ccccc3)C#Cc3ccccc3)cc2)cc1 (repeat unit) |

| Compound | glass transition temperature |
| --- | --- |
| *CCCCOCO* (repeat unit) | -84.00 °C |
| *O[Si](*)(C)CCCCCCCC (repeat unit) | -92.00 °C |
| *CC(*)S(=O)(=O)c1ccccc1 (repeat unit) | 128.00 °C |
| *CC(O)C(O)COC(=O)O* (repeat unit) | 39.60 °C |
| *[Si](*)(C)c1ccccc1 (repeat unit) | 88.00 °C |
| *CCCOC(=O)CCCCC(=O)O* (repeat unit) | -55.00 °C |
| *Oc1cccc(Oc2cccc(*)n2)c1 (repeat unit) | 82.00 °C |
| *CC(*)OC(=O)c1ccccc1C (repeat unit) | 42.50 °C |
| */C=C/C(C)C(*)C(=O)OC (repeat unit) | 53.00 °C |
| *CC(*)c1ccc(F)cc1 (repeat unit) [Poly(4-fluorostyrene)] | 104 ± 4.9 °C |
| *CCc1ccc(*)c(C#N)c1 (repeat unit) | 90.00 °C |
| *CC1CCC(COP(=O)(/N=N/c2ccc(C(=O)c3ccc(/N=N/P(=O)(O*)OC)cc3)cc2)OC)CC1 (repeat unit) | 52.00 °C |
| *[O][Sn]([CH2]CCC)([CH2]CCC)[O]C(=O)/C=C/C(*)=O (repeat unit) | 186.00 °C |
| *CC(*)(C)C(=O)Oc1c(C)cccc1C (repeat unit) | 167.00 °C |
| *C(*)F (repeat unit) | 102.00 °C |
| *Nc1cccc2c(N[Se]*)cccc12 (repeat unit) | 53.00 °C |
